Measurements: US20250326772A1, “MRGPRX2 ANTAGONISTS, PHARMACEUTICAL COMPOSITION INCLUDING MRGPRX2 ANTAGONIST, AND METHOD OF TREATING MRGPRX2-MEDIATED DISEASE OR DISORDER” (KYORIN PHARMACEUTICAL CO., LTD., priority 2024, published 2025)

Target: T1, MRGPRX2 (Homo sapiens, UniProt Q96LB1)
T1 sequence (Q96LB1 1-330): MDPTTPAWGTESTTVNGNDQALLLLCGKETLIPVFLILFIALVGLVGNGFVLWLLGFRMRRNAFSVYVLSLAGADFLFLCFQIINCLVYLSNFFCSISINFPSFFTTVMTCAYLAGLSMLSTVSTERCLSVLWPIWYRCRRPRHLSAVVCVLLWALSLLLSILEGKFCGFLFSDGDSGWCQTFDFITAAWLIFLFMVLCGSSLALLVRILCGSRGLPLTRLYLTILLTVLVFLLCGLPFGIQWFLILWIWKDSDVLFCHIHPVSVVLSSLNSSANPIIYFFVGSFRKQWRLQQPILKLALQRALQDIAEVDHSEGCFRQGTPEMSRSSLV
Test: MRGPRX2 reporter cell assay (NFAT-RE luciferase, Substance P stimulation)
Assay type: cell-based
Settings: U2OS cells stably transfected with MRGPRX2 and NFAT-RE luciferase reporter; Substance P at EC80
Outline: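 U2OS cells stably expressing MRGPRX2 and an NFAT-RE luc2P reporter, pre-incubated 30 min at 37° C with compound (0.5% DMSO), then stimulated with Substance P at EC80 for 6 h. Luminescence after ONE-GLO; percent inhibition fitted by four-parameter logistic to IC50.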

Row | IC50 [nM] | Compound
1 | 2.9 | Cn1cc(-c2c(-c3c(C(F)F)nn4c3OCCC4)[nH]c3ncccc23)c(OC(F)F)n1 [EX. 272]
2 | 1.2 | COC(=O)N[C@@H]1COc2c(-c3[nH]c4ncccc4c3-c3cn(C)nc3OC(F)F)c(C(F)F)nn2C1 [EX. 571]
3 | 5.8 | CCc1nn2c(c1-c1[nH]c3ncccc3c1-c1cn(C)nc1OC(F)F)OCCC2 [EX. 422]

Same assay, conditions: U2OS cells stably transfected with MRGPRX2 and NFAT-RE luciferase reporter; Substance P at EC80; class symbols

Row | IC50 [nM] | Compound
4 | < 10 | [2H]C([2H])([2H])Oc1ccc(C#N)c(-c2c(-c3c(C)nn4c3OCC(O)C4)[nH]c3ncccc23)c1 (stereo not drawn) [EX. 199]
5 | < 10 | Cn1cc(-c2c(-c3c(C4CC4)nn4c3OCCC4)[nH]c3ncccc23)c(OC(F)F)n1 [EX. 420]
6 | < 10 | COc1ccc(C#N)c(-c2c(-c3c(C(F)F)nn4c3OCC3(CC3)C4)[nH]c3ncccc23)c1 [EX. 183]
7 | < 10 | Cn1cc(-c2c(-c3c(C(F)F)nn4c3OC[C@@H](NC(=O)[C@H]3C[C@@H]3F)C4)[nH]c3ncccc23)c(OC(F)F)n1 [EX. 550]
8 | < 10 | Cn1cc(-c2c(-c3c(C(F)F)nn4c3OC[C@@H](NC(=O)[C@H]3C[C@H]3F)C4)[nH]c3ncccc23)c(OC(F)F)n1 (atropisomer, axis not shown) [EX. 548]
9 | < 10 | [2H]C([2H])([2H])Oc1ccc(C#N)c(-c2c(-c3c(C)nn4cc[nH]c34)[nH]c3ncccc23)c1 [EX. 169]
10 | < 10 | Cc1cc(-c2c(-c3c(C4CC4)nn4c3OC[C@@H](O)C4)[nH]c3ncccc23)c(C#N)s1 [EX. 460]
11 | < 10 | O[C@@H]1COc2c(-c3[nH]c4ncccc4c3-c3ccccc3)c(C(F)F)nn2C1 [EX. 465]
12 | < 10 | COc1ccc(C#N)c(-c2c(-c3c(C)nn4c3OCC(NC(C)=O)C4)[nH]c3ncccc23)c1 (stereo not drawn) [EX. 354, N-[3-[3-(2-cyano-5-methoxy-phenyl)-1H-pyrrolo[2,3-b]pyridin-2-yl]-2-methyl-6,7-dihydro-5H-pyrazolo[5,1-b] [1,3]oxazin-6-yl]acetamide]
13 | < 10 | N#Cc1ccccc1-c1c(-c2c[nH]nc2C(F)(F)F)[nH]c2ncccc12 [EX. 94]
14 | < 10 | COC(=O)N[C@@H]1COc2c(-c3[nH]c4ncccc4c3-c3cn(C)nc3OC(F)F)c(C(F)F)nn2C1 [EX. 571]
15 | < 10 | Cn1cc(-c2c(-c3c(C(F)F)nn4c3OC[C@@H](F)C4)[nH]c3ncccc23)c(OC(F)F)n1 [EX. 434]
16 | < 10 | CS(=O)(=O)N[C@@H]1COc2c(-c3[nH]c4ncccc4c3-c3csnc3OC(F)F)c(C(F)F)nn2C1 [EX. 524]
17 | < 10 | O[C@@H]1COc2c(-c3[nH]c4ncccc4c3-c3ccsc3Cl)c(C(F)F)nn2C1 [EX. 453]
18 | < 10 | N#Cc1nscc1-c1c(-c2c(C(F)F)nn3c2OCCC3)[nH]c2ncccc12 [EX. 403]
19 | < 10 | Cc1cc(-c2c(-c3c(C(F)F)nn4c3OC[C@@H](NS(C)(=O)=O)C4)[nH]c3ncccc23)c(C#N)s1 [EX. 525]
20 | < 10 | Cn1cc(-c2c(-c3c(C(F)F)nn4c3OC[C@@H](NC(=O)[C@@H]3CC3(F)F)C4)[nH]c3ncccc23)c(OC(F)F)n1 [EX. 552]
21 | < 10 | Fc1ccc(-c2c(-c3c(C(F)F)nn4c3OC[C@@H](F)C4)[nH]c3ncccc23)c(OC(F)F)c1 [EX. 447]
22 | < 10 | N#Cc1ncccc1-c1c(-c2c(C(F)F)nn3c2OC[C@@H](O)C3)[nH]c2ncccc12 [EX. 477]
23 | < 10 | COC(=O)N(C)[C@@H]1COc2c(-c3[nH]c4ncccc4c3-c3cn(C)nc3OC(F)F)c(C(F)F)nn2C1 [EX. 578]

Continued, molecule first:

Row | Compound | IC50 [nM]
24 | N#Cc1ccccc1-c1c(-c2cnn3c2OCCC3)[nH]c2nccc(F)c12 [EX. 90] | < 10
25 | COc1ccccc1-c1[nH]c2ncccc2c1-c1ccccc1C#N [EX. 307] | < 10
26 | [2H]c1cnc2[nH]c(-c3c(C)nn4c3OCC4)c(-c3cc(OC([2H])([2H])[2H])ccc3C#N)c2c1 [EX. 218] | < 10
27 | COc1ccc(F)cc1-c1[nH]c2ncccc2c1-c1cc(C)ccc1F [EX. 21, 2-(5-fluoro-2-methoxy-phenyl)-3-(2-fluoro-5-methyl-phenyl)-1H-pyrrolo[2,3-b]pyridine] | < 10
28 | CNC(=O)COC(=O)N[C@@H]1COc2c(-c3[nH]c4ncccc4c3-c3cn(C)nc3OC(F)F)c(C(F)F)nn2C1 [EX. 590] | < 10
29 | COc1ccc(F)cc1-c1[nH]c2ncccc2c1-c1cc(C)ccc1C#N [EX. 326] | < 10
30 | Cn1cc(-c2c(-c3c(C(F)F)nn4c3OCCC4)[nH]c3ncccc23)c(OC(F)F)n1 [EX. 272] | < 10
31 | FC(F)c1nn2c(c1-c1[nH]c3ncccc3c1-c1cnsc1C(F)F)OCCC2 [EX. 416] | 10 to 100
32 | CNC(=O)O[C@@H]1COc2c(-c3[nH]c4ncccc4c3-c3cn(C)nc3OC(F)F)c(C(F)F)nn2C1 [EX. 540] | < 10
33 | N#Cc1ccccc1-c1c(-c2ccccc2O)[nH]c2ncccc12 [EX. 122] | < 10
34 | COc1ccc(F)c(-c2c(-c3cc(F)ccc3OC)[nH]c3ncccc23)c1 [EX. 323] | < 10
35 | [2H]C([2H])([2H])Oc1ccc(C#N)c(-c2c(-c3c(C)nn4c3NCC4)[nH]c3ncccc23)c1 [EX. 168] | < 10
36 | [2H]C([2H])([2H])Oc1ccc(C#N)c(-c2c(-c3c(C)nn4c3OCC[C@H]4C)[nH]c3ncccc23)c1 [EX. 178] | < 10
37 | Cc1ccc(C#N)c(-c2c(-c3cn(C)nc3C(F)F)[nH]c3ncccc23)c1 [EX. 99] | < 10
38 | COc1ccc(F)cc1-c1[nH]c2ncccc2c1-c1cn(C)nc1C(F)F [EX. 292] | 100 to 1000
39 | COC(=O)N[C@@H]1COc2c(-c3[nH]c4ncccc4c3-c3cn(C)nc3OC(F)F)c(C)nn2C1 [EX. 546] | < 10
40 | COc1ccccc1-c1[nH]c2ncccc2c1-c1cc(C)ccc1C#N [EX. 316] | < 10
41 | CC(=O)N[C@@H]1COc2c(-c3[nH]c4ncccc4c3-c3cn(C)nc3OC(F)F)c(C(F)F)nn2C1 [EX. 544] | < 10
42 | N#Cc1ncccc1-c1c(-c2c(C(F)F)nn3c2OCCC3)[nH]c2ncccc12 [EX. 411] | 10 to 100
43 | COc1ccc(C#N)c(-c2c(-c3c[nH]nc3C(F)(F)F)[nH]c3ncccc23)c1 [EX. 80] | < 10

Row | Compound | IC50 [nM]
44 | [2H]C([2H])([2H])Oc1ccc(C#N)c(-c2c(-c3c(C)nn4cc(C)cnc34)[nH]c3ncccc23)c1 [EX. 266] | < 10
45 | C[C@H](O)C(=O)N[C@@H]1COc2c(-c3[nH]c4ncccc4c3-c3cn(C)nc3OC(F)F)c(C(F)F)nn2C1 [EX. 561] | < 10
46 | COc1ccc(C#N)c(-c2c(-c3c(C(F)F)nn4c3OC[C@H](N)C4)[nH]c3ncccc23)c1 [EX. 361] | < 10
47 | Cc1cc(-c2c(-c3c(C(F)F)nn4c3OC[C@@H](F)C4)[nH]c3ncccc23)c(C#N)s1 [EX. 450] | < 10
48 | Cn1cc(-c2c(-c3c(C(F)F)nn4c3OC[C@@H](NS(=O)(=O)C3(C)CC3)C4)[nH]c3ncccc23)c(OC(F)F)n1 [EX. 574] | < 10
49 | Cc1ccc(C#N)c(-c2c(-c3c[nH]nc3OC(F)F)[nH]c3ncccc23)c1 [EX. 158] | < 10
50 | C[C@@]1(O)COc2c(-c3[nH]c4ncccc4c3-c3cccnc3OC(F)F)c(C(F)F)nn2C1 [EX. 438] | < 10
51 | OCCO[C@@H]1COc2c(-c3[nH]c4ncccc4c3-c3cccnc3OC(F)F)c(C(F)F)nn2C1 [EX. 495] | < 10
52 | Cc1cc(-c2c(-c3cnn4c3OCCC4)[nH]c3ncccc23)c(C#N)s1 [EX. 380] | 10 to 100
53 | N#Cc1ccccc1-c1c(-c2n[nH]cc2C(F)(F)F)[nH]c2ncccc12 [EX. 264] | < 10
54 | Cc1cc(-c2c(-c3c(C(F)F)nn4c3OC[C@@H](OCCO)C4)[nH]c3ncccc23)c(C#N)s1 [EX. 507] | < 10
55 | Cc1nn2c(c1-c1[nH]c3ncccc3c1-c1cn(C)nc1OC(F)F)OCCC2 [EX. 421, 3-(3-(3-(difluoromethoxy)-1-methyl-1H-pyrazol-4-yl)-1H-pyrrolo[2,3-b]pyridin-2-yl)-2-methyl-6,7-dihydro-5H-pyrazolo[5,1-b] [1,3]oxazine] | < 10
56 | C[C@H](O)CN(C)C(=O)N[C@@H]1COc2c(-c3[nH]c4ncccc4c3-c3cn(C)nc3OC(F)F)c(C(F)F)nn2C1 [EX. 595, 3-((S)-3-(3-(3-(difluoromethoxy)-1-methyl-1H-pyrazol-4-yl)-1H-pyrrolo[2,3-b]pyridin-2-yl)-2-(difluoromethyl)-6,7-dihydro-5H-pyrazolo[5,1-b] [1,3]oxazin-6-yl)-1-((S)-2-hydroxypropyl)-1-methylurea] | < 10
57 | Cc1ccc(F)c(-c2c(-c3cc(F)ccc3O)[nH]c3ncccc23)c1 [EX. 344] | < 10
58 | Cn1cc(-c2[nH]c3ncccc3c2-c2cc(Cl)ccc2C#N)c(C(F)F)n1 [EX. 375, 4-chloro-2-[2-[3-(difluoromethyl)-1-methyl-pyrazol-4-yl]-1 H-pyrrolo[2,3-b]pyridin-3-yl]benzonitrile] | < 10
59 | Cn1cc(-c2c(-c3c(C(F)F)nn4c3OC[C@@](C)(OCCO)C4)[nH]c3ncccc23)c(OC(F)F)n1 [EX. 493] | < 10
60 | Cc1nn2c(c1-c1[nH]c3ncccc3c1-c1cccnc1OC(F)F)OC[C@@H](NC(=O)C1CC1)C2 [EX. 594, (S)—N-(3-(3-(2-(difluoromethoxy)pyridin-3-yl)-1H-pyrrolo[2,3-b]pyridin-2-yl)-2-methyl-6,7-dihydro-5H-pyrazolo[5,1-b] [1,3]oxazin-6-yl) cyclopropanecarboxamide] | < 10
61 | [2H]c1c([2H])c([2H])c(-c2[nH]c3nccc(F)c3c2-c2ccccc2C#N)c(O)c1[2H] [EX. 45] | < 10
62 | CCc1nn2c(c1-c1[nH]c3ncccc3c1-c1cn(C)nc1OC(F)F)OCCC2 [EX. 422] | < 10
63 | FC(F)Oc1nnccc1-c1c(-c2c(C(F)F)nn3c2OCCC3)[nH]c2ncccc12 [EX. 388, 3-(3-(3-(difluoromethoxy)pyridazin-4-yl)-1H-pyrrolo[2,3-b]pyridin-2-yl)-2-(difluoromethyl)-6,7-dihydro-5H-pyrazolo[5,1-b] [1,3]oxazine] | 10 to 100
